Each compound was assayed against T1, human CARM1 (PRMT4) (Flag- and His-tagged) (Homo sapiens, UniProt Q86X55) (assay: CARM1 Biochemical Assay (3H-SAM Flashplate, peptide substrate)). Settings: not given.
T1 construct: Flag-CARM1-His; made in house; host or cells: HEK 293F cells (BacMam baculovirus)
T1 sequence (Q86X55 1-585 isoform Q86X55-1): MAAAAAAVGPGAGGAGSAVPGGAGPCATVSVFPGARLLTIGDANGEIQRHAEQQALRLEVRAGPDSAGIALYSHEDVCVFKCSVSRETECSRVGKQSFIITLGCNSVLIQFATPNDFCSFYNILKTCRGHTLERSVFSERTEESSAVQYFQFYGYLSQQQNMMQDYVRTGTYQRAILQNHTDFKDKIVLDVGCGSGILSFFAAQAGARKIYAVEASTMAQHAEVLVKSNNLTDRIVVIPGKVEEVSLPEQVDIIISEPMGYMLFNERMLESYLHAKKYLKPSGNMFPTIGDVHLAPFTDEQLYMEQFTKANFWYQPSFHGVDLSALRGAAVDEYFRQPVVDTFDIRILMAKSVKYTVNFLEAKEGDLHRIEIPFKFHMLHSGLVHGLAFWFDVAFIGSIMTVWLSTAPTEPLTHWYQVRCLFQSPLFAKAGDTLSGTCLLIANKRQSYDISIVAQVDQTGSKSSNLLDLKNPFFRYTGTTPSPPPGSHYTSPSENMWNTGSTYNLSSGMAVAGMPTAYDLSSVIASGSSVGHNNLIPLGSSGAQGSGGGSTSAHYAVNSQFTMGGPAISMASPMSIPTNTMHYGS
Text: General Materials. S-adenosylmethionine (SAM), S-adenosylhomocysteine (SAH), bicine, Tween20, dimethylsulfoxide (DMSO), bovine skin gelatin (BSG), sodium butyrate and Tris(2-carboxyethyl)phosphine hydrochloride solution (TCEP) were purchased from Sigma-Aldrich at the highest level of purity possible. ^3H-SAM was purchase from American Radiolabeled Chemicals with a specific activity of 80 Ci/mmol. 384-well streptavidin Flashplates were purchased from PerkinElmer.
Substrates. Peptide representative of human histone H3 residues 16-30 was synthesized with an N-terminal linker-affinity tag motif and a C-terminal amide cap by 21st Century Biochemicals. The peptide was purified by high-performance liquid chromatography (HPLC) to greater than 95% purity and confirmed by liquid chromatography mass spectrometry (LC-MS). The sequence was Biot-Ahx-[…]-amide and contained a monomethylated arginine at position 26 (SEQ ID NO.:14).
Molecular Biology: Human CARM1 (PRMT4) (NM_199141.1) transcript clone was amplified from an HEK 293 cDNA library, incorporating a flanking 5′ sequence encoding a FLAG tag ([…]) (SEQ ID NO.:6) fused directly to Ala 2 of CARM1 and 3′ sequence encoding a hexa His sequence ([…]) (SEQ ID NO.:15) fused directly to Ser 608. The gene sequence encoding isoform1 containing a deletion of amino acids 539-561 was amplified subsequently and subcloned into pFastBacMam (Viva Biotech).
Protein Expression. Recombinant baculovirus were generated according to Bac-to-Bac kit instructions (Life Technologies). […] Infections were carried out at 37° C. for 48 hours, harvested by centrifugation, and stored at −80° C. for purification.
Protein Purification. […] Column was washed with 500 mM NaCl in buffer A and Flag-CARM1-His was eluted with 200 ug/ml FLAG peptide in buffer A. Pooled fractions were dialyzed in 20 mM Tris, 150 mM NaCl, 5% glycerol and 1 mM DTT, pH 7.8. The purity of recovered protein was 94.
General Procedure for CARM1 Enzyme Assays on Peptide Substrates. The assays were all performed in a buffer consisting of 20 mM Bicine (pH=7.6), 1 mM TCEP, 0.005% BSG, and 0.002% Tween 20, prepared on the day of use. Compounds in 100% DMSO (1 ul) were spotted into a polypropylene 384-well V-bottom plates (Greiner) using a Platemate Plus outfitted with a 384-channel head (Thermo Scientific). DMSO (1 ul) was added to Columns 11, 12, 23, 24, rows A-H for the maximum signal control and 1 ul of SAH, a known product and inhibitor of CARM1, was added to columns 11, 12, 23, 24, rows I-P for the minimum signal control. A cocktail (40 ul) containing the CARM1 enzyme was added by Multidrop Combi (Thermo-Fisher). The compounds were allowed to incubate with CARM1 for 30 min at room temperature, then a cocktail (10 ul) containing ^3H-SAM and peptide was added to initiate the reaction (final volume=51 ul). The final concentrations of the components were as follows: CARM1 was 0.25 nM, ^3H-SAM was 30 nM, peptide was 250 nM, SAH in the minimum signal control wells was 1 mM, and the DMSO concentration was 2%. The assays were stopped by the addition of non-radiolabeled SAM (10 ul) to a final concentration of 300 uM, which dilutes the ^3H-SAM to a level where its incorporation into the peptide substrate is no longer detectable. 50 ul of the reaction in the 384-well polypropylene plate was then transferred to a 384-well Flashplate and the biotinylated peptides were allowed to bind to the streptavidin surface for at least 1 hour before being washed once with 0.1% Tween20 in a Biotek ELx405 plate washer. The plates were then read in a PerkinElmer TopCount plate reader to measure the quantity of ^3H-labeled peptide bound to the Flashplate surface, measured as disintegrations per minute (dpm) or alternatively, referred to as counts per minute (cpm).
Where dpm=disintegrations per minute, cmpd=signal in assay well, and min and max are the respective minimum and maximum signal controls. […]

Compound	IC50
CN(CCN)Cc1c[nH]nc1C1=CCOCC1 [Compound 10]	> 10000 nM
CC(C)c1n[nH]cc1CN(C)CCN [Compound 21]	> 10000 nM
CN(CCN)Cc1c[nH]nc1C1CC1 [Compound 12]	> 10000 nM

Same assay, conditions: single experiment or average of multiple experiments

Compound	IC50
CN(CCN)Cc1c[nH]nc1/C=C/c1ccc(F)cc1F [Compound 13]	200 nM
CNCCN(C)Cc1c[nH]nc1C#Cc1cccc(OC)c1 [Compound 1]	260 nM
CNCCN(C)Cc1c[nH]nc1/C=C/c1ccc(OC)cc1 [Compound 7]	90 nM
Cc1ccc(/C=C/c2n[nH]cc2CN(C)CCN)cc1 [Compound 8]	370 nM
CNCCN(C)Cc1c[nH]nc1C#Cc1ccc(F)cc1 [Compound 4]	500 nM
COC/C=C/c1n[nH]cc1CN(C)CCN [Compound 19]	3780 nM
CNCCN(C)Cc1c[nH]nc1/C=C/c1ccc(C(F)(F)F)cc1 [Compound 6]	570 nM
CN(CCN)Cc1c[nH]nc1C1=CCOCC1 [Compound 10]	> 10000 nM
CN(CCN)Cc1c[nH]nc1CCc1ccc(F)cc1 [Compound 23, N^1-((3-(4-fluorophenethyl)-1H-pyrazol-4-yl)methyl)-N^1-methylethane-1,2-diamine]	2780 nM
CC(C)c1n[nH]cc1CN(C)CCN [Compound 21]	> 10000 nM
CNCCN(C)Cc1c[nH]nc1/C=C/c1ccc(-c2ccccc2)cc1 [Compound 5]	310 nM
COc1cccc(/C=C/c2n[nH]cc2CN(C)CCN)c1 [Compound 17]	90 nM
CN(CCN)Cc1c[nH]nc1C1CCCCC1 [Compound 22]	3770 nM
CN(CCN)Cc1c[nH]nc1C1CC1 [Compound 12]	> 10000 nM
CNCCN(C)Cc1c[nH]nc1C#Cc1ccc(C(C)(C)C)cc1 [Compound 2]	110 nM

Next, values leading:

IC50	Compound
310 nM	CN(CCN)Cc1c[nH]nc1/C=C/c1cc(F)cc(F)c1 [Compound 15]
110 nM	CN(CCN)Cc1c[nH]nc1/C=C/c1cccc(C(F)(F)F)c1 [Compound 16]
250 nM	CN(CCN)Cc1c[nH]nc1/C=C/c1cccc(F)c1 [Compound 20]
100 nM	CN(CCN)Cc1c[nH]nc1/C=C/c1ccc(C(F)(F)F)cc1 [Compound 18]
50 nM	COc1cc(/C=C/c2n[nH]cc2CN(C)CCN)cc(OC)c1 [Compound 11]
510 nM	CN(CCN)Cc1c[nH]nc1/C=C/c1cc(C(F)(F)F)cc(C(F)(F)F)c1 [Compound 14]

— patent US11512053B2, “Arginine methyltransferase inhibitors and uses thereof” (priority 2013, dated 2022)
